In US11786534B2 (TAIHO PHARMACEUTICAL CO., LTD., priority 2019, dated 2023) one finds GI50 and IC50 data, which are given here for 17 compounds.

The structures appear in SMILES notation. Read-outs that look alike come from different tables or passages of the source.

The target in experiment [1] is Ba/F3-EGFR (d746-750/T790M/C797S) (Homo sapiens, UniProt P00533, DEL746-750/T790M/C797S, cells depend on it). Put plainly: Growth inhibition of cell line expressing EGFR (d746-750/T790M/C797S). It counts as cell-based, mouse. The note with it: read-out: BaF3_EGFR (d746-750/T790M/C797S) IC50 value. The source says:
Test for inhibitory activity against the growth of cell lines expressing wild-type and mutated EGFRs (in vitro)
(1) Mouse cell line Ba/F3-EGFR (d746-750/T790M/C797S) transfected with and stably expressing EGFR (d746-750/T790M/C797S), mouse cell Ba/F3-EGFR (L858R/T790M/C797S) transfected with and stably expressing EGFR (L858R/T790M/C797S), and mouse cell line Ba/F3-EGFR (WT) transfected with and stably expressing wild-type EGFR were each suspended in RPMI-1640 cell culture medium (RPMI-1640, 10% FBS, 100 unit/ml penicillin, 0.1 mg/ml streptomycin). In the case of the mouse cell line Ba/F3-EGFR (WT), RPMI-1640 cell culture medium containing EGF at a final concentration of 50 ng/ml was used to suspend this cell line. It should be noted that the mouse cell line Ba/F3-EGFR (d746-750/T790M/C797S) transfected with and stably expressing EGFR (d746-750/T790M/C797S), the mouse cell line Ba/F3-EGFR (L858R/T790M/C797S) transfected with and stably expressing EGFR (L858R/T790M/C797S) and the mouse cell line Ba/F3-EGFR (WT) transfected with and stably expressing wild-type EGFR were prepared by using nucleotide sequences encoding the proteins of SEQ ID NOs: 1 and 2 in accordance with Test Example 1 in WO2018/079310, These cell suspensions were seeded in wells of 96-well flat -bottomed plates. The compounds of the present invention were dissolved in DMSO, and serial dilutions of these test compounds were prepared with DMSO (1000-fold of the final concentration). Each test compound solution in DMSO or DMSO alone was diluted with RPMI-1640 cell culture medium for each cell line, and this dilution was added to wells of the cell culture plate such that the final concentration of DMSO was 0.1%, followed by culture at 37° C. for 3 days in a 5% carbon dioxide gas-containing incubator. Before and after addition of each test compound solution in DMSO, the number of cells was counted using the CellTiter-Glo® system (Promega) on the basis of the protocol recommended by Promega.
In each cell line, the rate of cell growth inhibition was calculated according to the equation shown below in wells to which each test compound was added at different concentrations. Moreover, the inhibition rate at each concentration was plotted for each test compound, and the concentration of each test compound required to give 50% cell survival rate, i.e., IC50 (nM) was determined by curve fitting software XLfit (IDBS).
Cell survival rate (%)=T/C×100
T: emission intensity in a well cultured for 3 days after addition of a test compound solution
C: emission intensity in a well cultured for 3 days after addition of DMSO
In accordance with the same procedures as shown in Test Example 2, the compounds of the present invention were tested for their inhibitory activity against the growth of the cell hoes expressing wild-type and mutated EGFRs.

The target in the next experiment is T1, human EGFR (L858R/C797S) (Homo sapiens, UniProt P00533, C797S/L858R).
T1 construct: purchased SignalChem
T1 sequence (P00533 25-1210 C797S/L858R): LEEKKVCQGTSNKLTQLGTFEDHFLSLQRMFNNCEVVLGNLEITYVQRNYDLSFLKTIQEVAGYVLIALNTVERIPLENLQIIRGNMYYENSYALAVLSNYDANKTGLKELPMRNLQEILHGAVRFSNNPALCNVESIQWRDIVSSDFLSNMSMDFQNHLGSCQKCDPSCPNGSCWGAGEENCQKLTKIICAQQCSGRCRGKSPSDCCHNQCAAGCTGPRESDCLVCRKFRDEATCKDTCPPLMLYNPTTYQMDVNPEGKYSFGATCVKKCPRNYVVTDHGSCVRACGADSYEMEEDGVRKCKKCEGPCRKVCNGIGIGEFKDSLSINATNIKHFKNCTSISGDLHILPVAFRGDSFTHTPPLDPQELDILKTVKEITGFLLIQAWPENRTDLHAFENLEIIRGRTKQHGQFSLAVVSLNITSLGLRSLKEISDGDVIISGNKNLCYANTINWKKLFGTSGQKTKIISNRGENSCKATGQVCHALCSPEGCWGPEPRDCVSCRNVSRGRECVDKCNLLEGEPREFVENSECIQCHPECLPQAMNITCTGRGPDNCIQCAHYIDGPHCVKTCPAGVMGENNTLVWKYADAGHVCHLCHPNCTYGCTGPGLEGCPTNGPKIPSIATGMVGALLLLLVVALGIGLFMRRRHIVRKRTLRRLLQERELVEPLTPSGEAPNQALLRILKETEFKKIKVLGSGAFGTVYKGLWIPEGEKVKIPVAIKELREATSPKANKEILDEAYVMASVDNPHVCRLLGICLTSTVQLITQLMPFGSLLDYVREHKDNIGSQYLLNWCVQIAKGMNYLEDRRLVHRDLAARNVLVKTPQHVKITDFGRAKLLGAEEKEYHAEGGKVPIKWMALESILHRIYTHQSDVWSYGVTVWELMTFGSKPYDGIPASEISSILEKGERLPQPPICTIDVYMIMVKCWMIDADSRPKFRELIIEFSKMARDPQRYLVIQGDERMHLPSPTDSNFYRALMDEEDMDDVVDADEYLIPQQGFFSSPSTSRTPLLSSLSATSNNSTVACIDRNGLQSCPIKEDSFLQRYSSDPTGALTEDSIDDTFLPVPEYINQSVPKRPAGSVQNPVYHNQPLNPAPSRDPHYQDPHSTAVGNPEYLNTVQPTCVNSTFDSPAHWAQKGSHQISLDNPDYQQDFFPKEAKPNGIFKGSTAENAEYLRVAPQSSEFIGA
Put plainly: Inhibitory activity against EGFR (L858R/C797S) kinase. It counts as biochemical. The note with it: Test Example 1, Table 5; ATP 4 μM, 90 minutes. Put shortly: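 Purified recombinant human EGFR (C797S/L858R) kinase, final ATP 4 μM, 90-minute kinase reaction, otherwise per the EGFR (d746-750/C797S) protocol. IC50 (nM) determined from inhibition data.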

The next experiment deals with T2, human EGFR (WT) (Homo sapiens, UniProt P00533).
T2 construct: purchased Carna Biosciences Inc., Japan
T2 sequence (P00533 25-1210): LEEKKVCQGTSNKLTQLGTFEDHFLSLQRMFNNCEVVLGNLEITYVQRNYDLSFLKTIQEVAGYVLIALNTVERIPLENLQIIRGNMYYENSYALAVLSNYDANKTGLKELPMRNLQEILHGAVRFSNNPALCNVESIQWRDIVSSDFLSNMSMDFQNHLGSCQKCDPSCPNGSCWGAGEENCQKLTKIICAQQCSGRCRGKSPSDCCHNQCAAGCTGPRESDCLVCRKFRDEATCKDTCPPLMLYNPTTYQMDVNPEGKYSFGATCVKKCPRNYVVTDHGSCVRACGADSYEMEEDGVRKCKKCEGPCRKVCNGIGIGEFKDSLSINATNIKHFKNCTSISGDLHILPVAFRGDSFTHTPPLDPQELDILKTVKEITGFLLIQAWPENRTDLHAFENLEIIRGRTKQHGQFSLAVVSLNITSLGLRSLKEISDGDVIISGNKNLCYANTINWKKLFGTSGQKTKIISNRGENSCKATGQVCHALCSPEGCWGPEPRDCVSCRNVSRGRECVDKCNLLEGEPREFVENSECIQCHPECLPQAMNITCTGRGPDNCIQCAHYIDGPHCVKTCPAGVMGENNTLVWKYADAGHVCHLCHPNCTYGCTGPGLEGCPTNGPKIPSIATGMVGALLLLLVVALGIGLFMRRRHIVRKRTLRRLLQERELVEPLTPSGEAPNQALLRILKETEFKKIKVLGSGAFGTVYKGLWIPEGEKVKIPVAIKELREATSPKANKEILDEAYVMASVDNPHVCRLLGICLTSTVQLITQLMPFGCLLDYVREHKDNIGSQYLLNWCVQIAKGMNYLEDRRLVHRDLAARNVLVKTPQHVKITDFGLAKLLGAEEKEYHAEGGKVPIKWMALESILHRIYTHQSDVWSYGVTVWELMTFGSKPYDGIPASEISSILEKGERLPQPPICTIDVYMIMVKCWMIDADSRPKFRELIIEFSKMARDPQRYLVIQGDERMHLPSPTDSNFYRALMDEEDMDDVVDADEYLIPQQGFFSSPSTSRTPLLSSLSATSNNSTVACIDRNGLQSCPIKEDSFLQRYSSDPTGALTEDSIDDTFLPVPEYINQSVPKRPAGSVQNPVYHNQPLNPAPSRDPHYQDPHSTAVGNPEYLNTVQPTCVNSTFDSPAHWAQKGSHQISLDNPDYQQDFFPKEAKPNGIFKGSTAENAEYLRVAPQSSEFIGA
Put plainly: Inhibitory activity against EGFR (WT) kinase. It counts as biochemical. In outline:
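Purified recombinant human wild-type EGFR kinase, with ATP at 1.5 μM final. Compound inhibition of kinase activity read out and fitted to give IC50 (nM).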

Setting [2] is: Test Example 2, Table 7, culture 3 days, CellTiter-Glo.
[3] abbreviates: Test Example 1, Table 6, ATP 1.5 μM.
The mark [4] stands for this setting: Test Example 4, Table 13, same procedures as Test Example 2.

Broadly, the IC50 is the point on the concentration scale where inhibition reaches its midpoint. Higher therefore signals lower potency.

Ba/F3-EGFR (d746-750/T790M/C797S), sequence (P00533 with tags, fused parts or gaps DEL746-750/T790M/C797S): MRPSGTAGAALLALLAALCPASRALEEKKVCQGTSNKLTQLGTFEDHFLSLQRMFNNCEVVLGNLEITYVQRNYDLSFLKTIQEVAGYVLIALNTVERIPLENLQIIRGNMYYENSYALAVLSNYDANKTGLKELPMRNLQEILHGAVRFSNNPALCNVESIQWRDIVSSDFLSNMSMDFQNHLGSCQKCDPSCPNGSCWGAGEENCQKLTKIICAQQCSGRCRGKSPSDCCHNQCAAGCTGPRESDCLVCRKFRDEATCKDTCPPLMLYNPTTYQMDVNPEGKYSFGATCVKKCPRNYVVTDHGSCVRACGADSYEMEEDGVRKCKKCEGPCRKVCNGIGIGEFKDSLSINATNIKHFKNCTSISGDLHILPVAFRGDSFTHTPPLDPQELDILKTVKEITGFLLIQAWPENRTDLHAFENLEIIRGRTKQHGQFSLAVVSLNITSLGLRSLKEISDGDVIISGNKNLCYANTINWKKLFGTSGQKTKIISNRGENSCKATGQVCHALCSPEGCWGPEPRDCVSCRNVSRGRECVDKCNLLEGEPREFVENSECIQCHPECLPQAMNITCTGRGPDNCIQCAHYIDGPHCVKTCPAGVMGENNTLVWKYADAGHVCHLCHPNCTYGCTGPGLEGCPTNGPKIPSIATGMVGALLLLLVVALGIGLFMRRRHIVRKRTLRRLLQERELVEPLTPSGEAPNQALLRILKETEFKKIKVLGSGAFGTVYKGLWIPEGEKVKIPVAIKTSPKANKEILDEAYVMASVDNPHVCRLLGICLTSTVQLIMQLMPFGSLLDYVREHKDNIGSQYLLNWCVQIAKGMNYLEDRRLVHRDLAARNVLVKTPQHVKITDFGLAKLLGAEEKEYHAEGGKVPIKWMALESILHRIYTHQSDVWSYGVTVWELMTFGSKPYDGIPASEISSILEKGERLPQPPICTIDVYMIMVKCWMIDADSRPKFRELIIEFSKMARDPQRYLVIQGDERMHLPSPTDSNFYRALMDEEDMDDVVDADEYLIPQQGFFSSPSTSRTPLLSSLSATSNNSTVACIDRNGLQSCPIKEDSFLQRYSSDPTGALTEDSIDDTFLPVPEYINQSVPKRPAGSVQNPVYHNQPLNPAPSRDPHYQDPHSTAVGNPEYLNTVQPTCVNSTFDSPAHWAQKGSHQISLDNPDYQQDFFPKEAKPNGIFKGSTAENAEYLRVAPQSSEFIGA

As for `C=CC(=O)N1CC[C@@H](n2cc(-c3cnc4ccccc4c3)c3c(N)ncnc32)C1` [Comparative Example A, (R)-1-(3(4-Amino-5-(quinolin-3-yl)-7H-pyrrolo[2,3-d]pyrimidin-7-yl)pyrrolidin-1-yl) -prop-2-en-1-one, reference compound], the GI50 in experiment [1] (setting [2]) came out at 3660 nM. In addition, the concentration for half-maximal inhibition (IC50) against human EGFR (L858R/C797S) worked out at 187 nM; at human EGFR (WT) (setting [3]), 1.6 nM.

Take `C#Cc1c(-c2cnc3ccccc3c2)c2c(N)ncnc2n1[C@@H]1CCN(C(=O)C=C)C1` [Comparative Example B, (R)-1-(3-(4-Amino-6-ethynyl-5-(quinolin-3-yl)-7H-pyrrolo[2,3-d]pyrimidin-7-yl) -pyrrolidin-1-yl)-prop-2-en-1-one, reference compound]: in experiment [1] (setting [2]), the GI50 came to 1080 nM. The IC50 came out at 97 nM at human EGFR (L858R/C797S) and 0.95 nM on human EGFR (WT) (setting [3]).

On to `C#Cc1c(-c2cnc3ccccc3c2)c2c(N)ncnc2n1C12CCC(NC(=O)c3ccccc3)(CC1)C2` [Example 1, N-(4-(4-Amino-6-ethynyl-5-(quinolin-3-yl)-7H-pyrrolo[2,3-d]pyrimidin-7-yl)bicyclo-[2.2.1]heptan-1-yl)benzamide], for which, in experiment [1] (setting [4]), the GI50 was 98 nM. Also, the values for the IC50 at human EGFR (L858R/C797S) and on human EGFR (WT) (setting [3]) were 2.8 nM and 2.1 nM, respectively.

Take `C#Cc1c(-c2cnc3ccccc3c2)c2c(N)ncnc2n1C12CCC(NC(=O)c3cncnc3)(CC1)C2` [Example 2, N-(4-(4-Amino-6-ethynyl-5-(quinolin-3-yl)-7H-pyrrolo[2,3-d]pyrimidin-7-yl)bicyclo-[2.2.1]heptan-1-yl)pyrimidine-5-carboxamide]: the GI50 in experiment [1] (setting [2]) came out at 20 nM. Besides, the IC50 against human EGFR (L858R/C797S) came out at 0.46 nM; on human EGFR (WT) (setting [3]), 0.52 nM.

`C#Cc1c(-c2cnc3ccccc3c2)c2c(N)ncnc2n1C12CCC(NC(=O)c3ccnnc3)(CC1)C2` [Example 3, N-(4-(4-Amino-6-ethynyl-5-(quinolin-3-yl)-7H-pyrrolo[2,3-d]pyrimidin-7-yl)bicyclo-[2.2.1]heptan-1-yl)pyridazine-4-carboxamide]: the GI50 in experiment [1] (setting [2]) is 56 nM. Moreover, the IC50 on human EGFR (L858R/C797S) amounted to 0.37 nM; against human EGFR (WT) (setting [3]), 0.45 nM.

For `C#Cc1c(-c2cnc3ccccc3c2)c2c(N)ncnc2n1C12CCC(N3CCOCC3)(CC1)C2` [Example 9, 6-Ethynyl-7-(4-morpholinobicyclo[2.2.1]heptan-1-yl)-5-(quinolin-3-yl)-7H-pyrrolo[2,3-d]pyrimidine-4-amine], the GI50 in experiment [1] (setting [4]) came to 59 nM. Also, the IC50 on human EGFR (L858R/C797S) was 1 nM; against human EGFR (WT) (setting [3]) it was 2.6 nM.

Take `C#Cc1c(-c2cnc3ccccc3c2)c2c(N)ncnc2n1C12CCC(CNC(=O)c3ccnn3C)(CC1)C2` [Example 13, N-((4-(4-Amino-6-ethynyl-5-(quinolin-3-yl)-7H-pyrrolo[2,3-d]pyrimidin-7-yl)bicyclo-[2.2.1]heptan-1-yl)methyl)-1-methyl-1H-pyrazole-5-carboxamide]: the GI50 in experiment [1] (setting [2]) came to 239 nM. Besides, the IC50 against human EGFR (L858R/C797S) worked out at 0.69 nM; against human EGFR (WT) (setting [3]), 0.61 nM.

`C#Cc1c(-c2cnc3ccccc3c2)c2c(N)ncnc2n1C12CCC(CNC(=O)c3cnc(C)cn3)(CC1)C2` [Example 14, N-((4-(4-Amino-6-ethynyl-5-(quinolin-3-yl)-7H-pyrrolo[2,3-d]pyrimidin-7-yl)bicyclo-[2.2.1]heptan-1-yl)methyl)-5-methylpyrazine-2-carboxamide]: in experiment [1] (setting [2]), the GI50 was 204 nM. Moreover, the figures for the IC50 against human EGFR (L858R/C797S) and at human EGFR (WT) (setting [3]) were 1.3 nM and 1.7 nM, respectively.

With `C#Cc1c(-c2cnc3ccccc3c2)c2c(N)ncnc2n1C12CCC(NC(=O)c3ccc4ncnn4c3)(CC1)C2` [Example 16, N-(4-(4-Amino-6-ethynyl-5-(quinolin-3-yl)-7H-pyrrolo[2,3-d]pyrimidin-7-yl)bicyclo-[2.2.1]heptan-1-yl)-[1.2.4]triazolo[1,5-a]pyrimidin-6-carboxamide], the GI50 in experiment [1] (setting [4]) worked out at 32 nM. Moreover, the half-inhibitory concentration (IC50) against human EGFR (L858R/C797S) is 0.49 nM; on human EGFR (WT) (setting [3]), 0.53 nM.

Turning to `C#Cc1c(-c2cnc3ccccc3c2)c2c(N)ncnc2n1C12CCC(NC(=O)c3cnns3)(CC1)C2` [Example 18, N-(4-(4-Amino-6-ethynyl-5-(quinolin-3-yl)-7H-pyrrolo[2,3-d]pyrimidin-7-yl)bicyclo-[2.2.1]heptan-1-yl)-1,2,3-thiadiazole-5-carboxamide], the GI50 in experiment [1] (setting [4]) came to 124 nM. Moreover, the results for the IC50 against human EGFR (L858R/C797S) and against human EGFR (WT) (setting [3]) were 0.67 nM and 1.4 nM, respectively.

Consider `C#Cc1c(-c2cnc3ccccc3c2)c2c(N)ncnc2n1C12CCC(NC(=O)c3ccnn3C3CC3)(CC1)C2` [Example 20, N-(4-(4-Amino-6-ethynyl-5-(quinolin-3-yl)-7H-pyrrolo[2,3-d]pyrimidin-7-yl)bicyclo-[2.2.1]heptan-1-yl)-1-cyclopropyl-1H-pyrazole-5-carboxamide], for which the GI50 in experiment [1] (setting [4]) turned out to be 31 nM. For the same compound, the IC50 against human EGFR (L858R/C797S) is 1.2 nM; on human EGFR (WT) (setting [3]), 2.1 nM.

As to `C#Cc1c(-c2cnc3ccccc3c2)c2c(N)ncnc2n1C12CCC(NC(=O)c3nccn3C)(CC1)C2` [Example 23, N-(4-(4-Amino-6-ethynyl-5-(quinolin-3-yl)-7H-pyrrolo[2,3-d]pyrimidin-7-yl)bicyclo-[2.2.1]heptan-1-yl)-1-methyl-1H-imidazole-2-carboxamide], in experiment [1] (setting [4]), the GI50 was determined as 31 nM. The half-maximal inhibitory concentration (IC50) was 0.84 nM against human EGFR (L858R/C797S) and 1.4 nM against human EGFR (WT) (setting [3]).

Turning to `C#Cc1c(-c2cnc3ccccc3c2)c2c(N)ncnc2n1C12CCC(NC(=O)c3ccnn3C)(CC1)C2` [Example 24, N-(4-(4-Amino-6-ethynyl-5-(quinolin-3-yl)-7H-pyrrolo[2,3-d]pyrimidin-7-yl)bicyclo-[2.2.1]heptan-1-yl)-1-methyl-1H-pyrazole-5-carboxamide], the GI50 in experiment [1] (setting [2]) is 34 nM. The concentration for half-maximal inhibition (IC50) stood at 0.59 nM against human EGFR (L858R/C797S) and 0.73 nM at human EGFR (WT) (setting [3]).

Regarding `C#Cc1c(-c2cnc3ccccc3c2)c2c(N)ncnc2n1C12CCC(NC(=O)C(F)F)(CC1)C2` [Example 27, N-(4-(4-Amino-6-ethynyl-5-(quinolin-3-yl)-7H-pyrrolo[2,3-d]pyrimidin-7-yl)bicyclo-[2.2.1]heptan-1-yl)-2,2-difluoroacetamide], the GI50 in experiment [1] (setting [4]) was found to be 110 nM. In addition, the concentration for half-maximal inhibition (IC50) against human EGFR (L858R/C797S) and on human EGFR (WT) (setting [3]) was 2.4 nM each time.

As for `C#Cc1c(-c2cnc3ccccc3c2)c2c(N)ncnc2n1C12CCC(NC(=O)c3cncc(F)c3)(CC1)C2` [Example 35, N-(4-(4-Amino-6-ethynyl-5-(quinolin-3-yl)-7H-pyrrolo[2,3-d]pyrimidin-7-yl)-bicyclo-[2.2.1]heptan-1-yl)-5-fluoronicotinamide], the GI50 in experiment [1] (setting [4]) was 44 nM. Also, the half-maximal inhibitory concentration (IC50) against human EGFR (L858R/C797S) stood at 0.84 nM; on human EGFR (WT) (setting [3]), 1.3 nM.

`C#Cc1c(-c2cnc3ccccc3c2)c2c(N)ncnc2n1C12CCC(NC(=O)c3noc(C)n3)(CC1)C2` [Example 36, N-(4-(4-Amino-6-ethynyl-5-(quinolin-3-yl)-7H-pyrrolo[2,3-d]pyrimidin-7-yl)-bicyclo-[2.2.1]heptan-1-yl)-5-methyl-1,2,4-oxadiazole-3-carboxamide]: the GI50 in experiment [1] (setting [4]) is 59 nM. For the same compound, the half-inhibitory concentration (IC50) came to 0.99 nM against human EGFR (L858R/C797S) and 2.6 nM against human EGFR (WT) (setting [3]).

Take `C#Cc1c(-c2cnc3ccccc3c2)c2c(N)ncnc2n1C12CCC(NC(=O)[C@@H]3CN(C)CCO3)(CC1)C2` [Example 63, (S)-N-(4-(4-Amino-6-ethynyl-5-(quinolin-3-yl)-7H-pyrrolo[2,3-d]pyrimidin-7-yl) -bicyclo[2.2.1]heptan-1-yl)-4-methylmorpholine-2-carboxamide]: in experiment [1] (setting [4]), the GI50 was determined as 73 nM. Half-maximal inhibition against human EGFR (WT) (Test Example 3, Table 12; same procedures as 5) in Test Example 1) (IC50) was put at 2.8 nM.
